Assay results as given in patent US20250250542A1, “CULTURE METHOD” (Quell Therapeutics Limited, priority 2023, published 2025).

What was measured:
[1] = test system: bulk Tregs from patient donor material; assay: % of FOXP3+ cells in the expansion product from patient donor material; assay type: cell-based, human; conditions: 100 nM rapamycin
Description: Leukopaks were supplied by BioIVT.
Leukopaks were used to derive Treg populations. […] Where indicated, CD4+CD25+CD127−/low (Bulk Tregs) were used.

[2] = test system: Tregs from patient material; assay: Transduction efficiency of expansion product (% Dextramer+/QBEND+)
Description: A lentiviral vector was used to transduce the cells. The vector encodes an RQR8 safety switch, a FOXP3 polypeptide and an HLA-A2-specific CAR.
The Tregs were rested in Treg culture media (X-VIVO 15 media (Lonza) supplemented with 5% Human AB serum (heat-inactivated; Merck)) containing 100 nM of rapamycin for 1 hour before activation. The Tregs were then activated by adding CD3 and CD28 beads and cultured for 24 or 48 hours (1+24 and 1+48 conditions respectively). At 24 or 48 hours, the cells were washed with fresh Treg culture media and centrifuged. The supernatant was removed and the cell pellet was resuspended in fresh Treg culture media. The expansion was then continued in the fresh Treg culture media (X-VIVO 15 media (Lonza) supplemented with 5% Human AB serum (heat-inactivated; Merck)) further containing IL-2 (Proleukin, Clinigen Healthcare) and lentiviral supernatant but no rapamycin. Cells were re-fed every 2 to 3 days with Treg culture media supplemented with IL-2. Cells were harvested by removing the CD3 and CD28 beads 14 days after activation.

Compound: CO[C@H]1C[C@@H]2CC[C@@H](C)[C@@](O)(O2)C(=O)C(=O)N2CCCC[C@H]2C(=O)O[C@H]([C@H](C)C[C@@H]2CC[C@@H](O)[C@H](OC)C2)CC(=O)[C@H](C)/C=C(\C)[C@@H](O)[C@@H](OC)C(=O)[C@H](C)C[C@H](C)/C=C/C=C/C=C/1C [rapamycin]
- % CD4+CD25+FOXP3+ cells ([1]; donor LTX-008, 1 + 24 h, day 14 (control 80.8)): 91.2%
- % CD4+CD25+FOXP3+ cells ([1]; donor LTX-008, 1 + 48 h, day 14 (control 80.8)): 91.4%
- % CD4+CD25+FOXP3+ cells ([1]; donor LTX-0011, 1 + 48 h, day 14 (control 57.3)): 92.6%
- % CD4+CD25+FOXP3+ cells ([1]; donor LTX-0012, 1 + 48 h, day 14 (control 92.8)): 98.2%
- % CD4+CD25+FOXP3+ cells ([1]; donor LTX-0013, 1 + 48 h, day 14 (control 41.0)): 89.9%
- % Dextramer+/QBEND+ ([2]; donor LTX-008, 1 + 24 (control 36)): 30%
- % Dextramer+/QBEND+ ([2]; donor LTX-008, 1 + 48 (control 36)): 37.8%
- % Dextramer+/QBEND+ ([2]; donor LTX-0011, 1 + 48 (control 20.5)): 30.8%
- % Dextramer+/QBEND+ ([2]; donor LTX-0012, 1 + 48 (control 10)): 11%
